Results on 25 compounds are retold here after patent US7928113B2, “Integrin-binding small molecules” (University of Southern California, priority 2005, dated 2011).

What all share (format): cell-based, human
Data set [1] deals with HEY ovarian cancer cell line. The experiment in a line: Cytotoxicity MTT assay, HEY. As to conditions: Homo sapiens; 20 μM, HEY, 72 h MTT; read-out: % inhibition of cell growth at 20 μM, HEY. The text has this:
(§1) Cell Culture. Human breast cancer cells (MCF-7, αvβ3—, overexpressed wild-type p53, ER+; MDA-MB 468, p53 mutant, ER+; and MDA-MB-435, αvβ3+, p53 mutant, ER−) and non-small cell lung cancer cells H1975 were obtained from the American Type Cell Culture (Rockville, Md. Q4). The HEY human ovarian carcinoma cell line naturally resistant to cisplatin (CDDP) was kindly provided by Dr. Dubeau (University of Southern California Norris Cancer Center). Cells were maintained as monolayer cultures in RPMI 1640 supplemented with 10% fetal bovine serum (Gemini-Bioproducts, Woodland, Calif.) and 2 mmol/L L-glutamine at 37° C. in a humidified atmosphere of 5% CO2. To remove the adherent cells from the flask for passaging and counting, cells were washed with PBS without calcium or magnesium, incubated with a small volume of 0.25% trypsin-EDTA solution (Sigma, St. Louis, Mo.) for 5 to 10 minutes, and washed with culture medium and centrifuged. All experiments were done using cells in exponential cell growth.
(§2) Cytotoxicity Assay. Cytotoxicity was assessed by 3-(4,5-dimethylthiazol-2-yl)-2,5-diphenyltetrazolium bromide (MTT) assay as previously described.^41, 54 Briefly, cells were seeded in 96-well microtiter plates and allowed to attach. Cells were subsequently treated with a continuous exposure to the corresponding drug for 72 hours. An MTT solution (at a final concentration of 0.5 mg/mL) was added to each well and cells were incubated for 4 hours at 37° C. After removal of the medium, DMSO was added and the absorbance was read at 570 nm. All assays were done in triplicate. The IC50 was then determined for each drug from a plot of log (drug concentration) versus percentage of cell kill.
(§3) Cytotoxicity of Selected Compounds in a Panel of Cancer Cell lines. Initially, we tested all compounds in two breast cancer cell lines MDA-MB-435 and MCF7 with high and low αvβ3 expression as well as in HEY ovarian cancer cell line naturally resistant to cisplatin. […] We observed a remarkable specificity for some of the compounds against these cells. […] Considering the fact that αvβ3 mediates migration, attachment and apoptosis of cancer cells, the combination of these novel high affinity antagonists with conventional cytotoxic drugs should show improved therapeutic benefits without additional toxicity.
(§4) NVX-188 was tested for cytotoxicity by MTT assays in two breast cancer cell lines, MDA-MB-435 with high αvβ3 integrin expression and MCF7 with low αvβ3 integrin expression, and an ovarian cancer cell line, HEY, which was used to test for cell growth inhibition evidence. NVX-188 was further evaluated in a lung cancer cell line, NCI-H1975, and a mouse fibroblast, NIH3T3. NVX-188 was not cytotoxic at the highest dose level tested (20 uM).
Background: Formazan colour is commonly taken as a measure of viable cells.

The subject of data set [2] is MDA-MB-435 breast cancer cell line. The experiment in a line: Cytotoxicity MTT assay, MDA-MB-435. As to conditions: Homo sapiens; 20 μM, MDA-MB-435, 72 h MTT; read-out: % inhibition of cell growth at 20 μM, 435.
Description: as §1, §2, §3, §4

For data set [3], the system named is MCF7 breast cancer cell line. Kind of data set: Cytotoxicity MTT assay, MCF7. As to conditions: Homo sapiens; 20 μM, MCF7, 72 h MTT; read-out: % inhibition of cell growth at 20 μM, MCF7.
Description: as §1, §2, §3, §4

A short description of data set [4]: Cytotoxicity MTT assay, HEY. As to conditions: human, HEY ovarian carcinoma cells; HEY, Table 5.
Description: as §1, §2, §3, §4

Data set [5] can be described thus: Cytotoxicity MTT assay, MDA-MB-435. As to conditions: human, MDA-MB-435 breast cancer cells; MDA-MB-435, Table 5.
Description: as §1, §2, §3, §4

A short description of data set [6]: Cytotoxicity MTT assay, MCF7. As to conditions: human, MCF-7 breast cancer cells; MCF-7, Table 5.
Description: as §1, §2, §3, §4

A value given as a limit tells only on which side of the number the result lay.

Usually inhibition stands for the change of the read-out against control, counted positive when it falls. As for `CN(Cc1cnc2nc(N)nc(N)c2n1)c1ccc(C(=O)NC(CCCCN)C(=O)O)cc1` (stereo not drawn) [AV4], the inhibition at 20 µM was 0% in data set [1], 16% in data set [2] and 30% in data set [3].
On to `CN(C1=NC(=O)/C(=C\c2ccc(OCC(=O)O)cc2)S1)c1ccc(O)cc1` [AV24], for which the values for the inhibition at 20 µM in data set [1], in data set [2] and in data set [3] were 19%, 9% and 21%, respectively.
On the same counts, the results for `CCOc1cc(/C=N/Nc2nc(Nc3ccccc3)nc(N3CCCCC3)n2)ccc1OCC(=O)O` [AV14] are 0%, 70% and 3%.
On the same counts, the results for `COc1cc(/C=N/Nc2nc(Nc3ccc(F)cc3)nc(N3CCCCC3)n2)ccc1OCC(=O)O` [AV11] are 0%, 53% and 49%.
On the same counts, the results for `Nc1nc(O)c2cc(CSc3ccc(C(=O)NC(CCC(=O)O)C(=O)O)cc3)ccc2n1` (stereo not drawn) [AV7] are 0%, 5% and 22%.
Consider `CCC(=O)Nc1nc(C)c(-c2csc(Nc3cccc(C(=O)O)c3)n2)s1` [AV31], for which the inhibition at 20 µM was determined as 62% in data set [1], 21% in data set [2] and 44% in data set [3].
On the same counts, the results for `CC(=O)Nc1nc(O)c2nc(CCN(C)c3ccc(C(=O)O)cc3)cnc2n1` [AV5] are 0%, 49% and 0%.
The like results for `O=C(CSc1nnnn1-c1ccc(O)cc1)NCc1cccc(C(=O)O)c1` [AV23] were, in that order, 0%, 9% and 34%.
With `Nc1ccc(C(=O)Nc2nc3ccc(C(=O)O)cc3s2)cc1` [AV9], the inhibition at 20 µM in data set [1] came out at 0%; in data set [2], 19%; in data set [3], 36%.
For the compound `CCC(=O)Nc1ccc(C(=O)Nc2ccc(OCC(=O)O)cc2)cc1` [AV28], the inhibition at 20 µM in data set [1] was determined as 34%; in data set [2], 32%; in data set [3], 32%.
As to `COc1cc(/C=C2/SC(N(C)c3ccc(O)cc3)=NC2=O)ccc1OCC(=O)O` [AV25], the inhibition at 20 µM was 12% in data set [1], 26% in data set [2] and 29% in data set [3].
On the same counts, the results for `CCn1cc(C(=O)O)c(=O)c2cc(F)c(N3CCN(S(=O)(=O)c4ccc(NC(C)=O)cc4)CC3)cc21` [AV22] are 0%, 25% and 7%.
Regarding `COc1cc(/C=C2\S/C(=N/c3cccc(C(=O)O)c3)N(C)C2=O)cc(Cl)c1O` [AV37], the figures for the inhibition at 20 µM in data set [1], in data set [2] and in data set [3] were 0%, 3% and 9%, respectively.
In the case of `O=C(CCCCn1cnc2c(S)ncnc21)Nc1ccc(C(=O)O)c(O)c1` [AV2], the values for the inhibition at 20 µM in data set [1], in data set [2] and in data set [3] were 0%, 1% and 1%, respectively.
In the case of `O=C(CCCCn1cnc2c(S)ncnc21)Nc1ccc(C(=O)O)cc1` [AV1], the inhibition at 20 µM in data set [1] stood at 14%; in data set [2], 0%; in data set [3], 0%.
A word on the IC50: it is the midpoint of a concentration-inhibition curve. For `O=C(O)c1ccc(-c2ccc(/C=N/Nc3nc(Nc4ccccc4)nc(Nc4ccccc4)n3)o2)cc1` [AV10], the concentration for half-maximal inhibition (IC50) at 72 h in data set [4] was 21 ± 3 µM; in data set [5], 18 ± 9 µM; in data set [6] it was over 20 µM. Moreover, the inhibition at 20 µM in data set [1] is 73%; in data set [2], 93%; in data set [3], 62%.
`CC1=C(C#N)c2nc(N)c(C#N)c(C)c2/C1=C/c1ccc(-c2ccc(Cl)c(C(=O)O)c2)o1` [AV15]: the results for the inhibition at 20 µM in data set [1], in data set [2] and in data set [3] were 14%, 33% and 14%, respectively.
`COc1cc(OC)c(/C=C2\S/C(=N/c3ccc(C(=O)O)cc3)N(C)C2=O)cc1Br` [AV36]: the inhibition at 20 µM in data set [1] was 4%; in data set [2], 16%; in data set [3] it was 29%.
Consider `CC1=NN(c2ccc(C(=O)O)cc2)C(=O)/C1=C/c1ccc(-c2ccc(S(N)(=O)=O)cc2)o1` [AV19], for which the half-inhibitory concentration (IC50) at 72 h in data set [4] was over 20 µM; in data set [5] it was over 20 µM; in data set [6] it was 19 ± 4 µM. Besides, the results for the inhibition at 20 µM in data set [1], in data set [2] and in data set [3] were 6%, 30% and 66%, respectively.
On to `Cc1nnc(N/N=C/c2ccc(OCC(=O)O)cc2)nc1O` [AV20], for which the values for the inhibition at 20 µM in data set [1], in data set [2] and in data set [3] were 0%, 11% and 27%, respectively.
On the same counts, the results for `COc1cc(/C=C2\NC(=O)N(CC(=O)Nc3ccc(C)cc3)C2=O)ccc1OCc1cccc(C(=O)O)c1` [AV21] are 0%, 26% and 43%.
The like results for `O=C(O)COc1ccc(/C=N/NC(=O)c2ccc(O)cc2)cc1OCC(=O)O` [AV29] were, in that order, 9%, 14% and 21%.
On the same counts, the results for `Nc1nc(O)c2nc3c(nc2n1)C(=O)N(c1ccc(C(=O)NC(CCC(=O)O)C(=O)O)cc1)C3` (stereo not drawn) [AV6] are 0%, 12% and 19%.
Take `Cc1ccnc(NS(=O)(=O)c2ccc(NC(=O)c3ccc(C(=O)O)cc3C(=O)O)cc2)n1` [AV18]: the inhibition at 20 µM in data set [1] came out at 0%; in data set [2], 18%; in data set [3] it was 11%.
The like results for `Nc1nc(O)c2cc(COc3ccc(C(=O)NC(CCC(=O)O)C(=O)O)cc3)ccc2n1` (stereo not drawn) [AV8] were, in that order, 6%, 12% and 24%.
